According to ChEMBL document CHEMBL1129185, “The design and synthesis of non-peptide ligands with affinity and selectivity for tachykinin receptors” (Bioorg Med Chem Lett, 1996):
Peptide text beside a SMILES is read from it.

Assays:
Substance-P receptor [1] = biological target: T1, Substance-P receptor (Homo sapiens, UniProt P25103); test: Inhibitory activity against binding of [125I]Bolton-Hunter SP to tachykinin NK-1 receptor in human lymphoma IM9 cells; assay type: cell-based, IM-9
[2] = biological target: T2, Neuromedin-K receptor (Cavia porcellus) (UniProt P30098); test: Inhibitory activity against binding of [125I][MePhe7]-NKB SP to tachykinin NK-3 receptor in guinea pig cortical membranes at concentration 10 uM; assay type: cell membranes
T2 sequence (whole entry): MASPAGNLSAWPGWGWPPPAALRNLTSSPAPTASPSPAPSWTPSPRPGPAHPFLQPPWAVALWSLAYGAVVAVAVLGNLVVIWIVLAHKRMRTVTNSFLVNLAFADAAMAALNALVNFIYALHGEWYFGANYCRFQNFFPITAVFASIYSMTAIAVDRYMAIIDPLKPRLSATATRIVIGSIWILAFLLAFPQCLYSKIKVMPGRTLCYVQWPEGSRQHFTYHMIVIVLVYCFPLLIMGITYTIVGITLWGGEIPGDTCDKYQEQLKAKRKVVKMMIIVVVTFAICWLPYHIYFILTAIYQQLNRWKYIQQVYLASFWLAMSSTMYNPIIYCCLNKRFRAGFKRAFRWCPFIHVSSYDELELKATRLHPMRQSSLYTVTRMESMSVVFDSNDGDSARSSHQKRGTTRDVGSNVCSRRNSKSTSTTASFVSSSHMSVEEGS

Substance-P receptor [3] = biological target: T1, Substance-P receptor; test: Inhibitory activity against binding of [125I]Bolton-Hunter SP to tachykinin NK-1 receptor in human lymphoma IM9 cells at concentration 10 uM; assay type: cell-based; details: IM-9
Neuromedin-K receptor = biological target: T3, Neuromedin-K receptor (Cavia porcellus, UniProt P30098); test: Inhibitory activity against binding of [125I][MePhe7]-NKB SP to tachykinin NK-3 receptor in guinea pig cortical membranes.; assay type: cell membranes
T3 sequence (P30098 whole entry): T2 sequence (whole entry)

Substance-P receptor [4] = biological target: T1, Substance-P receptor; test: Inhibitory activity against binding of [125I]Bolton-Hunter SP to tachykinin NK-1 receptor in human lymphoma IM9 cells.; assay type: cell-based, IM-9

T1 sequence (P25103 whole entry): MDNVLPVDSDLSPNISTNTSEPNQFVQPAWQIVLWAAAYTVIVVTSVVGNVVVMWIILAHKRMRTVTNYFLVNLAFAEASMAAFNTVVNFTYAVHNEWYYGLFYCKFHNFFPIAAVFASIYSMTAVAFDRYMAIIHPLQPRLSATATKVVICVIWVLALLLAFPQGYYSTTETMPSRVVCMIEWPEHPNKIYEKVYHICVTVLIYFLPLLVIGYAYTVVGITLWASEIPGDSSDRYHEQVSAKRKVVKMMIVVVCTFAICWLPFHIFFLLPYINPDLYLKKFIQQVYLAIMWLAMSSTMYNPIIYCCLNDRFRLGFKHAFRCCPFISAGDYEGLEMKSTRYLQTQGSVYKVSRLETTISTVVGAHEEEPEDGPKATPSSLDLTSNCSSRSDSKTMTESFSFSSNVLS

SMILES	IC50 (Substance-P receptor [1]) [µM]	inhibition [2] [%]	inhibition (Substance-P receptor [3]) [%]	IC50 (Neuromedin-K receptor) [µM]	IC50 (Substance-P receptor [4]) [µM]
NC(=O)[C@H](Cc1ccccc1)NC(=O)[C@H](Cc1c[nH]c2ccccc12)NC(=O)OCc1ccccc1 (HELM PEPTIDE1{[O=C(OCc1ccccc1)[*:2]].W.F.[am]}$$$$V2.0)	4.2	< 10	–	–	–
O=C1C(Cc2ccccc2)OCCN1Cc1ccccc1 (configuration not stated)	–	–	< 10	4.09	–
CSCC[C@H](NC(=O)[C@H](CC(C)C)NC(=O)CNC(=O)[C@H](Cc1ccccc1)NC(=O)[C@H](Cc1ccccc1)NC(=O)[C@H](CCC(N)=O)NC(=O)[C@H](CCC(N)=O)NC(=O)[C@@H]1CCCN1C(=O)[C@H](CCCCN)NC(=O)[C@@H]1CCCN1C(=O)[C@@H](N)CCCN=C(N)N)C(N)=O [SUBSTANCE P]	–	–	–	0.717	–
O=C1C(Cc2c[nH]c3ccccc23)OCCN1Cc1ccccc1 (configuration not stated)	–	< 10	–	–	3.5
